Measurements: the NIST ThermoML archive (doi:10.1021/je400839x)

Assay: xn = mol fraction of the nth substance listed
Conditions: for viscosity / speed of sound / mass density: 101 kPa, Liquid; for viscosity: Concentric cylinders viscometry; for speed of sound: Pulse-echo method; for mass density: Vibrating tube method; for surface tension liquid-gas: 294 K, Pendant drop shape

CC(CC(C)(C)C)CC(C)(C)C [2,2,4,6,6-pentamethylheptane] + CCCCCCCCCCCCCCCC
Conditions	mass density [kg/m3]	speed of sound [m/s]	viscosity [mPa·s]
293.15 K, x1 = 0.1261	770.6	1342.7	3.1
293.15 K, x1 = 0.2449	767.8	1327.4	2.79
293.15 K, x1 = 0.4087	763.6	1304.9	2.41
293.15 K, x1 = 0.562	759.5	1282.2	2.09
293.15 K, x1 = 0.7036	755.3	1259.1	1.8
293.15 K, x1 = 0.8368	751	1235.8	1.56
293.15 K, x1 = 1	745.5	1204	1.29
303.15 K, x1 = 0.1261	763.8	1305.2	2.47
303.15 K, x1 = 0.2449	760.9	1290	2.25
303.15 K, x1 = 0.4087	756.8	1267.4	1.97
303.15 K, x1 = 0.562	752.6	1244.5	1.72
303.15 K, x1 = 0.7036	748.3	1221.1	1.5
303.15 K, x1 = 0.8368	743.9	1197.4	1.31
303.15 K, x1 = 1	738.2	1164.9	1.1
313.15 K, x1 = 0.1261	756.8	1268.4	2.03
313.15 K, x1 = 0.2449	754	1253.3	1.86
313.15 K, x1 = 0.4087	749.8	1230.7	1.64
313.15 K, x1 = 0.562	745.6	1207.5	1.44
313.15 K, x1 = 0.7036	741.3	1183.8	1.27
313.15 K, x1 = 0.8368	736.8	1159.8	1.11
313.15 K, x1 = 1	730.9	1126.7	0.941
323.15 K, x1 = 0.1261	749.9	1232.5	1.68
323.15 K, x1 = 0.2449	747.1	1217.2	1.55
323.15 K, x1 = 0.4087	742.9	1194.6	1.38
323.15 K, x1 = 0.562	738.6	1171.2	1.23
323.15 K, x1 = 0.7036	734.2	1147.2	1.09
323.15 K, x1 = 0.8368	729.6	1122.9	0.966
323.15 K, x1 = 1	723.5	1089.3	0.827
333.15 K, x1 = 0.1261	742.9	–	1.42
333.15 K, x1 = 0.2449	740.1	–	1.32
333.15 K, x1 = 0.4087	735.8	–	1.18
333.15 K, x1 = 0.562	731.5	–	1.06
333.15 K, x1 = 0.7036	727	–	0.944
333.15 K, x1 = 0.8368	722.3	–	0.843
333.15 K, x1 = 1	716.1	–	0.726
343.15 K, x1 = 0.1261	735.9	–	1.22
343.15 K, x1 = 0.2449	733	–	1.14
343.15 K, x1 = 0.4087	728.7	–	1.02
343.15 K, x1 = 0.562	724.4	–	0.922
343.15 K, x1 = 0.7036	719.7	–	0.827
343.15 K, x1 = 0.8368	714.9	–	0.742
343.15 K, x1 = 1	708.6	–	0.643
353.15 K, x1 = 0.1261	728.8	–	1.06
353.15 K, x1 = 0.2449	725.9	–	0.988
353.15 K, x1 = 0.4087	721.5	–	0.894
353.15 K, x1 = 0.562	717.1	–	0.81
353.15 K, x1 = 0.7036	712.3	–	0.73
353.15 K, x1 = 0.8368	707.5	–	0.658
353.15 K, x1 = 1	700.9	–	0.573
363.15 K, x1 = 0.1261	721.7	–	0.928
363.15 K, x1 = 0.2449	718.8	–	0.87
363.15 K, x1 = 0.4087	714.4	–	0.791
363.15 K, x1 = 0.562	709.8	–	0.719
363.15 K, x1 = 0.7036	704.9	–	0.651
363.15 K, x1 = 0.8368	700	–	0.589
363.15 K, x1 = 1	693.2	–	0.515
373.15 K, x1 = 0.1261	714.5	–	0.823
373.15 K, x1 = 0.2449	711.7	–	0.773
373.15 K, x1 = 0.4087	707.1	–	0.706
373.15 K, x1 = 0.562	702.5	–	0.644
373.15 K, x1 = 0.7036	697.5	–	0.585
373.15 K, x1 = 0.8368	692.3	–	0.531
373.15 K, x1 = 1	685.5	–	0.467

Conditions	surface tension liquid-gas [mN/m]
x1 = 0.1261	25.9
x1 = 0.2449	25.3
x1 = 0.4087	24.3
x1 = 0.562	23.8
x1 = 0.7036	23.1
x1 = 0.8368	22.5
x1 = 1	21.8
